US6593365B1, “Diflunisal esters and related compounds” (The University of Queensland, priority 1997, dated 2003)
Marks after values point to notes of the source that are not given here.

Legend:
[1] = Maximum solubility in 2% BSA Krebs-Henseleit buffer (pH 7.4); type: physicochemical; conditions: 25 1° C.
Text: The intrinsic solubility of diflunisal esters is extremely low (TABLE 2). The more lipophilic the analogue, the higher the solubility of solute under these conditions.

[2] = test system: in-situ perfused rat liver; assay: In-situ rat liver perfusion bolus studies, moments and dispersion model analysis (Example 3); type: in vitro ADME, Sprague-Dawley rats; conditions: n = 3, Mean S.E.; for RN (efficiency number) / a (dispersion model): determined using equation 5 & 6; for CV^2 (normalized variance) / F (hepatic availability) / MTT (mean transit time): moments analysis, bolus, 30 mL/min; for CV^2 (normalized variance) / F (hepatic availability) / MTT (mean transit time) / Efflux rate coefficient (k2) / Elimination rate coefficient (kel) / Influx rate coefficient (k1): 2% BSA perfusate; for Efflux rate coefficient (k2) / Elimination rate coefficient (kel) / Influx rate coefficient (k1): two-compartment dispersion model fitting
Description: Mature female Sprague-Dawley rats were obtained from the University of Queensland Animal Breeding Facility and weighed between 180-270 grams. The animals were given access to a standard laboratory diet prior to experiment. Rats were anaesthetised by interperitoneal injection of pentobarbital sodium (60 mg/kg, Boehringer Ingelhein). […] The bile duct was cannulated with PE10 (Clay Adams, New Jersey). 0.025 gm/L taurocholic acid (Sigma Co., USA.) was dissolved in perfusate to stimulate bile production. The portal vein was then cannulated using a 16 G intravenous catheter and the liver was perfused via this cannula with 2% BSA Krebs-Henseleit bicarbonate buffer (pH 7.4) and oxygenated using a silastic tubing lung ventilated with carbogen (95% O2/5% CO2). The perfusion system used was non-recirculating and employed a peristaltic pump (Cole-Parmer, Illinois).
The animal was placed in a temperature controlled perfusion cabinet at 37° C. Liver viability was assessed by oxygen consumption, bile flow, diflunisal esters' extraction and macroscopic appearance.
Perfusions were made at 30 mL/min in each liver. After a 10 minute perfusion stabilization period, injectate (50 μL) containing Evans Blue (3 mg/mL) and [^3H]-water in a saturated solution of the particular O-acyl diflunisal ester or pregenerated diflunisal (which was injected as parent compound) in 2% BSA Krebs-Henseleit buffer, was injected into the liver with outlet samples collected via a fraction collector over one minute.
Aliquots (100 μL) of pooled perfusate samples were taken for Evans Blue spectrophotometric analysis and [^3H]-water scintillation counting before adjusting pH. These pooled samples were then acidified to pH 2.0 by addition of 1 M HCl and extracted into 2.5 volumes of ether. […] The ether fraction was then removed and reduced to approximately 100 μL by evaporation under air and prepared as before for HPLC analysis. A known concentration of each buffer solution of ester was concurrently extracted and assayed with the perfusate samples to assess the degree of spontaneous hydrolysis occurring over the duration of the extraction procedure. This non-enzymatic hydrolysis was converted for in the analysis. The total recovery of diflunisal esters extracted using this technique was >90%.
The F, MTT and CV^2 for the diflunisal esters (or pregenerated DF) and the reference solutes (EB and [^3H]-water) were determined from the outflow concentration versus time profile using equation (1)-(4), with the assistance of the Moments Calculator 2.2 program for Macintosh computer developed by Robert Purves (Purves RD, 1994, J. Pharm. Sci. 83 202-205). [formula] [formula]
where Q is the perfusate flow rate, D is the dose of diflunisal esters administered. The area under the concentration-time curve (AUC) and the first moment curve (AUMC) were estimated by the trapezoidal rule integration with appropriate modification for tail (Mellick et al., 1996, submitted for publication). [formula]
The moment data was further examined using the dispersion model of hepatic elimination which defines F of an extracted solute by the equation (Roberts et al., 1990, J. Pharmacokin. Biopharm. 18 209-234): [formula]
a={square root over (1+4RNDN)} (6)
DN is the dispersion number which describes the spread of solute residence times in the liver following bolus input and equal half the normalized variance for a non-extracted reference indicator [formula]
RN is the efficiency number which characterises the elimination of solute by the liver and is defined by the equation: [formula]
(Gillette, 1971, Ann. N. Acad. Sci. 179 43-61)), and Q is the perfusate flow rate. If F for a solute and the CV^2 for a non-extracted reference solute (eg. EB) are known, we can solve for “a” using equation (5) and then for “RN” using equation (6).
The dispersion model expressions (Roberts et al., 1990) for MTT and CV^2 are presented in equations (8) and (9). [formula] [formula] […]

CC(=O)Oc1ccc(-c2ccc(F)cc2F)cc1C(=O)O [Compound C2D, acetyldiflunisal]
Maximum solubility [1]: 7.57 mM
Maximum solubility ([1]; mean standard deviation (n=3)): 2200 ± 70 µg/mL
RN (efficiency number) [2]: 2.58 ± 0.02
a (dispersion model) [2]: 2.26 ± 0.02^c
CV^2 (normalized variance) [2]: 0.70 ± 0.19
F (hepatic availability) [2]: 0.21 ± 0.03
MTT (mean transit time) [2]: 10.36 ± 2.31 s
RN/fub (removal of unbound solute) [2]: 9.57 ± 0.37
RN/fub (removal of unbound solute) ([2]; listed as acetyl): 9.57
Efflux rate coefficient (k2) [2]: 0.25 ± 0.03 s⁻¹
Elimination rate coefficient (kel) [2]: 0.18 ± 0.02 s⁻¹
Influx rate coefficient (k1) [2]: 1.20 ± 0.11 s⁻¹

CCCC(=O)Oc1ccc(-c2ccc(F)cc2F)cc1C(=O)O [Compound C4D, n-butanoyldiflunisal]
Maximum solubility [1]: 12.38 mM
Maximum solubility ([1]; mean standard deviation (n=3)): 3960 ± 80 µg/mL
RN (efficiency number) [2]: 1.56 ± 0.02
a (dispersion model) [2]: 1.87 ± 0.01
CV^2 (normalized variance) [2]: 1.01 ± 0.18
F (hepatic availability) [2]: 0.34 ± 0.01
MTT (mean transit time) [2]: 7.73 ± 0.99 s
RN/fub (removal of unbound solute) [2]: 11.17 ± 0.38
Efflux rate coefficient (k2) [2]: 0.08 ± 0.04 s⁻¹
Elimination rate coefficient (kel) [2]: 0.16 ± 0.07 s⁻¹
Influx rate coefficient (k1) [2]: 0.41 ± 0.12 s⁻¹

CCCCC(=O)Oc1ccc(-c2ccc(F)cc2F)cc1C(=O)O [Compound C5D, n-pentanoyldiflunisal]
Maximum solubility [1]: 20.90 mM
Maximum solubility ([1]; mean standard deviation (n=3)): 6980 ± 150 µg/mL
RN (efficiency number) [2]: 1.32 ± 0.03
a (dispersion model) [2]: 1.77 ± 0.02
CV^2 (normalized variance) [2]: 1.02 ± 0.33
F (hepatic availability) [2]: 0.38 ± 0.02
MTT (mean transit time) [2]: 6.62 ± 0.84 s
RN/fub (removal of unbound solute) [2]: 11.04 ± 0.39
Efflux rate coefficient (k2) [2]: 0.14 ± 0.07 s⁻¹
Elimination rate coefficient (kel) [2]: 0.18 ± 0.06 s⁻¹
Influx rate coefficient (k1) [2]: 0.51 ± 0.16 s⁻¹

CCCCCC(=O)Oc1ccc(-c2ccc(F)cc2F)cc1C(=O)O [Compound C6D, n-hexanoyldiflunisal]
Maximum solubility [1]: 44.77 mM
Maximum solubility ([1]; mean standard deviation (n=3)): 15580 ± 300 µg/mL
RN (efficiency number) [2]: 1.32 ± 0.03
a (dispersion model) [2]: 1.77 ± 0.03
CV^2 (normalized variance) [2]: 1.15 ± 0.48
F (hepatic availability) [2]: 0.38 ± 0.04
MTT (mean transit time) [2]: 6.19 ± 0.95 s
RN/fub (removal of unbound solute) [2]: 16.50 ± 0.22
RN/fub (removal of unbound solute) ([2]; listed as hexanoyl): 16.50
Efflux rate coefficient (k2) [2]: 0.06 ± 0.03 s⁻¹
Elimination rate coefficient (kel) [2]: 0.15 ± 0.03 s⁻¹
Influx rate coefficient (k1) [2]: 0.63 ± 0.24 s⁻¹

O=C(O)c1cc(-c2ccc(F)cc2F)ccc1O [DF, 2′,4′-difluoro-4-hydroxy-3-biphenylcarboxylic acid, reference compound]
a (dispersion model) [2]: 1.33 ± 0.01
CV^2 (normalized variance) [2]: 0.99 ± 0.27
MTT (mean transit time) [2]: 6.80 ± 0.94 s
RN/fub (removal of unbound solute) [2]: 9.51 ± 0.18
Efflux rate coefficient (k2) [2]: 0.02 ± 0.01 s⁻¹
Elimination rate coefficient (kel) [2]: 0.06 ± 0.01 s⁻¹
Influx rate coefficient (k1) [2]: 0.18 ± 0.03^b sec^−1
